Experimental data as given in the NIST ThermoML archive (doi:10.1016/j.jct.2013.01.032).

Experiments:
[1] = mn = molality of the nth substance listed, in mol/kg; conditions: 101 kPa, Liquid; for speed of sound: Sing-around technique in a fixed-path interferometer; for mass density: Vibrating tube method
[2] = osmotic coefficient (dimensionless); mn = molality of the nth substance listed, in mol/kg; conditions: 323.15 K, Liquid, Knauer Osmometer

CCCCn1cc[n+](C)c1.O=S(=O)([O-])C(F)(F)F [1-butyl-3-methylimidazolium trifluoromethanesulfonate] + CC(C)O
[1]
Conditions | mass density, 293.15 K [kg/m3] | mass density, 308.15 K [kg/m3] | mass density, 323.15 K [kg/m3] | speed of sound, 293.15 K [m/s] | speed of sound, 308.15 K [m/s] | speed of sound, 323.15 K [m/s]
m1 = 0.049 | 789.81 | 777.07 | 763.51 | 1158.3 | 1106.4 | 1053.4
m1 = 0.1 | 794.52 | 781.8 | 768.29 | 1159.5 | 1108 | 1055.5
m1 = 0.152 | 799.18 | 786.48 | 772.99 | 1160.9 | 1109.6 | 1057.4
m1 = 0.207 | 804.09 | 791.39 | 777.93 | 1162.6 | 1111.2 | 1059.3
m1 = 0.254 | 808.1 | 795.41 | 781.98 | 1163.3 | 1112.5 | 1060.8
m1 = 0.51 | 828.98 | 816.33 | 803.01 | 1168.6 | 1119.1 | 1068.8
m1 = 0.754 | 847.24 | 834.61 | 821.37 | 1173.2 | 1124.8 | 1075.6
m1 = 1.006 | 864.73 | 852.1 | 838.92 | 1178.4 | 1130.5 | 1082.3
m1 = 1.525 | 896.77 | 884.17 | 871.1 | 1188.1 | 1142 | 1095.6
m1 = 1.758 | 910.13 | 897.53 | 884.5 | 1192.5 | 1147 | 1101.3
m1 = 2.05 | 925.34 | 912.77 | 899.8 | 1197.6 | 1153.1 | 1108.2
m1 = 2.526 | 947.75 | 935.19 | 922.28 | 1206 | 1162.5 | 1118.6
m1 = 3.011 | 967.97 | 955.42 | 942.57 | 1214.3 | 1171.5 | 1128.5

[2]
Conditions | osmotic coefficient
m1 = 0.0255 | 0.991
m1 = 0.0473 | 0.911
m1 = 0.1132 | 0.844
m1 = 0.1803 | 0.765
m1 = 0.2949 | 0.686
m1 = 0.398 | 0.624
m1 = 0.5052 | 0.588
m1 = 0.8092 | 0.518
m1 = 1.205 | 0.461
m1 = 1.615 | 0.412
m1 = 2.031 | 0.391
m1 = 2.42 | 0.381
m1 = 2.829 | 0.366
m1 = 3.326 | 0.356

CCCCn1cc[n+](C)c1.O=S(=O)([O-])C(F)(F)F [1-butyl-3-methylimidazolium trifluoromethanesulfonate] + CCC(C)O
[1]
Conditions | mass density, 293.15 K [kg/m3] | mass density, 308.15 K [kg/m3] | mass density, 323.15 K [kg/m3] | speed of sound, 293.15 K [m/s] | speed of sound, 308.15 K [m/s] | speed of sound, 323.15 K [m/s]
m1 = 0.098 | 815.49 | 802.94 | 789.53 | 1231 | 1177.6 | 1122.9
m1 = 0.149 | 819.88 | 807.37 | 794.01 | 1231.4 | 1178.3 | 1124.1
m1 = 0.201 | 824.3 | 811.78 | 798.46 | 1231.9 | 1179.2 | 1125.5
m1 = 0.249 | 828.21 | 815.73 | 802.45 | 1232 | 1179.6 | 1126.3
m1 = 0.498 | 847.84 | 835.4 | 822.26 | 1233.7 | 1182.7 | 1130.8
m1 = 1.002 | 882.87 | 870.47 | 857.52 | 1238.2 | 1189.5 | 1140.3
m1 = 1.239 | 897.53 | 885.16 | 872.26 | 1240.2 | 1192.4 | 1144
m1 = 1.522 | 913.81 | 901.44 | 888.61 | 1243.1 | 1196.2 | 1148.8
m1 = 1.763 | 926.62 | 914.26 | 901.49 | 1245.6 | 1199.4 | 1152.7
m1 = 2.497 | 961.11 | 948.77 | 936.11 | 1253.6 | 1209.2 | 1164.3
m1 = 2.935 | 978.86 | 966.54 | 953.94 | 1258.2 | 1214.5 | 1170.8

[2]
Conditions | osmotic coefficient
m1 = 0.0481 | 0.914
m1 = 0.0784 | 0.806
m1 = 0.1008 | 0.771
m1 = 0.2021 | 0.657
m1 = 0.2917 | 0.568
m1 = 0.3846 | 0.507
m1 = 0.485 | 0.472
m1 = 0.7679 | 0.428
m1 = 1.126 | 0.379
m1 = 1.523 | 0.334
m1 = 1.909 | 0.318
m1 = 2.282 | 0.31
m1 = 2.574 | 0.296
m1 = 2.994 | 0.279
m1 = 3.448 | 0.275
